According to US4331670A (priority 1979, dated 1982):

Assays:
Pyricularia orzae = assay: whole plant or invertebrate; type: in vivo, Pyricularia orzae (rice plant, Chukyo Asahi); conditions: in Oryza sativa, 120 h, read-out: Protective value
Rhizoctonia solani = assay: whole plant or invertebrate; type: in vivo, Rhizoctonia solani (rice plant, Chukyo Asahi); conditions: in Oryza sativa, 120 h, read-out: Preventive value
Plutella xylostella = assay: Test 11: mortality of larvae of Plutella xylostella on treated cabbage leaf; type: in vivo; conditions: foliar, 192 h, leaf dipped, emulsifiable concentrate Composition No. 3, eight days, read-out: Percent mortality
Excerpt: Each emulsifiable concentrate of each active ingredient as Composition No. 3 was dispersed in water at a concentration of 800 ppm. Each leaf of cabbage was dipped into each emulsion for about 10 seconds and taken up and dried in air.
A wet filter paper was put in each Petri dish (diameter of 9 cm), and each treated leaf was put on the filter paper. Larvae of Plutella xylostella at 2nd to 3rd instar were charged and the dish was covered with a cap and kept in a constant temperature chamber with lighting at 28° C. Eight days after the charge, mortality was measured and each percent mortality was calculated.

Botrytis cinerea = assay: Test 9: protective value on cucumber inoculated with Botrytis cinerea; type: in vivo, Botrytis cinerea (cucumber plant, Suyo); conditions: 72 h, 250 ppm, 10 ml sprayed, lesion length three days after inoculation
Procedure: In each unglazed pot having a diameter of 9 cm, cucumber plant (Suyo) was cultured. At one leaf stage, 10 ml. of each solution of each active ingredient having a concentration of 250 ppm was sprayed by a spray gun. After maintaining the pot in a green-house at 24° to 25° C. for one day, a disc (punched agar disc) obtained by culturing Botrytis cinerea on a potato-glucose-agar medium (PDA medium) was put on the leaf of cucumber to inoculate them. Three days after the inoculation, lengths of lesions were measured and each protective value was calculated as Test 2.
In accordance with the test, except the concentration of the active ingredient was decreased, the comparative tests of Compound No. 7 and Reference compound were carried out.

## Cc1nc(Nc2c([N+](=O)[O-])cc([N+](=O)[O-])cc2C(F)(F)F)c(Cl)cc1Cl [compound 68]
Pyricularia orzae
  pest or weed control at 50 ppm: 100%
Rhizoctonia solani
  pest or weed control at 100 ppm: 100%
Plutella xylostella
  mortality at 800 ppm: 100%

## O=[N+]([O-])c1cc([N+](=O)[O-])c(Nc2nc(Cl)ccc2C(F)(F)F)c(C(F)(F)F)c1 [compound 76]
Pyricularia orzae
  pest or weed control at 50 ppm: 100%
Rhizoctonia solani
  pest or weed control at 100 ppm: 100%

## O=[N+]([O-])c1cc(C(F)(F)F)c(Cl)c([N+](=O)[O-])c1Nc1ccc(C(F)(F)F)cn1 [compound 19]
Pyricularia orzae
  pest or weed control at 100 ppm: 100%
Rhizoctonia solani
  pest or weed control at 100 ppm: 100%
Botrytis cinerea
  pest or weed control at 250 ppm: 100%

## Cc1c(Cl)cnc(Nc2c([N+](=O)[O-])cc([N+](=O)[O-])cc2C(F)(F)F)c1Cl [compound 78]
Pyricularia orzae
  pest or weed control at 50 ppm: 100%
Rhizoctonia solani
  pest or weed control at 100 ppm: 100%

## Cc1cnc(Nc2c([N+](=O)[O-])cc([N+](=O)[O-])cc2C(F)(F)F)c(Br)c1 [compound 64]
Pyricularia orzae
  pest or weed control at 50 ppm: 100%
Rhizoctonia solani
  pest or weed control at 100 ppm: 100%
Plutella xylostella
  mortality at 800 ppm: 100%

## Cc1c(Cl)cnc(Nc2c([N+](=O)[O-])cc(C(F)(F)F)cc2[N+](=O)[O-])c1Cl [compound 13]
Pyricularia orzae
  pest or weed control at 100 ppm: 92%

## Cc1nc(Nc2c([N+](=O)[O-])cc(C(F)(F)F)c(Cl)c2[N+](=O)[O-])c(Cl)c(C)c1Cl [compound 11]
Pyricularia orzae
  pest or weed control at 100 ppm: 84%

## O=[N+]([O-])c1cc(C(F)(F)F)c(Cl)c([N+](=O)[O-])c1Nc1ncc(Cl)cc1Br [compound 18]
Pyricularia orzae
  pest or weed control at 100 ppm: 100%
Rhizoctonia solani
  pest or weed control at 100 ppm: 100%
Botrytis cinerea
  pest or weed control at 250 ppm: 100%

## O=[N+]([O-])c1cc([N+](=O)[O-])c(Nc2cccnc2)c(C(F)(F)F)c1 [compound 58]
Plutella xylostella
  mortality at 800 ppm: 100%

## CCc1nc(Nc2c([N+](=O)[O-])cc(C(F)(F)F)c(Cl)c2[N+](=O)[O-])ccc1Br [compound 23]
Pyricularia orzae
  pest or weed control at 100 ppm: 93%
Botrytis cinerea
  pest or weed control at 250 ppm: 81%

## CCc1nc(Nc2c([N+](=O)[O-])cc(C(F)(F)F)cc2[N+](=O)[O-])ccc1Br [compound 24]
Pyricularia orzae
  pest or weed control at 100 ppm: 90%

## O=[N+]([O-])c1cc([N+](=O)[O-])c(Nc2nc(Cl)c(Br)cc2C(F)(F)F)c(C(F)(F)F)c1 [compound 82]
Pyricularia orzae
  pest or weed control at 50 ppm: 100%

## O=[N+]([O-])c1cc(C(F)(F)F)c(Oc2ccccc2O)c([N+](=O)[O-])c1Nc1ncc(C(F)(F)F)cc1Cl [compound 48]
Rhizoctonia solani
  pest or weed control at 100 ppm: 100%
Botrytis cinerea
  pest or weed control at 250 ppm: 100%

## O=[N+]([O-])c1cc([N+](=O)[O-])c(Nc2cc(Cl)cc(Cl)n2)c(C(F)(F)F)c1 [compound 72]
Rhizoctonia solani
  pest or weed control at 100 ppm: 100%

## CSc1c(C(F)(F)F)cc([N+](=O)[O-])c(Nc2ncc(C(F)(F)F)cc2Cl)c1[N+](=O)[O-] [compound 45]
Pyricularia orzae
  pest or weed control at 100 ppm: 100%
Rhizoctonia solani
  pest or weed control at 100 ppm: 100%

## O=[N+]([O-])c1cc(C(F)(F)F)c(Cl)c([N+](=O)[O-])c1Nc1ncc(Br)cc1C(F)(F)F [compound 30]
Pyricularia orzae
  pest or weed control at 100 ppm: 100%
Rhizoctonia solani
  pest or weed control at 100 ppm: 95%
Botrytis cinerea
  pest or weed control at 250 ppm: 100%

## O=[N+]([O-])c1cc([N+](=O)[O-])c(Nc2ccc(C(F)(F)F)cn2)c(C(F)(F)F)c1 [compound 57]
Plutella xylostella
  mortality at 800 ppm: 100%

## O=[N+]([O-])c1cc(C(F)(F)F)c(Oc2cccc(O)c2)c([N+](=O)[O-])c1Nc1ncc(C(F)(F)F)cc1Cl [compound 50]
Rhizoctonia solani
  pest or weed control at 100 ppm: 100%
Botrytis cinerea
  pest or weed control at 250 ppm: 100%

## O=[N+]([O-])c1cc([N+](=O)[O-])c(Nc2ccc(I)cn2)c(C(F)(F)F)c1 [compound 53]
Plutella xylostella
  mortality at 800 ppm: 100%

## O=[N+]([O-])c1cc([N+](=O)[O-])c(Nc2ncc(Br)cc2C(F)(F)F)c(C(F)(F)F)c1 [compound 84]
Pyricularia orzae
  pest or weed control at 50 ppm: 100%

## O=[N+]([O-])c1cc([N+](=O)[O-])c(Nc2ncc(Cl)cc2C(F)(F)F)c(C(F)(F)F)c1 [compound 83]
Pyricularia orzae
  pest or weed control at 50 ppm: 100%
Plutella xylostella
  mortality at 800 ppm: 100%

## CCCCOc1c(C(F)(F)F)cc([N+](=O)[O-])c(Nc2ncc(C(F)(F)F)cc2Cl)c1[N+](=O)[O-] [compound 43]
Pyricularia orzae
  pest or weed control at 100 ppm: 95%
Rhizoctonia solani
  pest or weed control at 100 ppm: 95%
Plutella xylostella
  mortality at 800 ppm: 100%

## Cc1cc(Nc2c([N+](=O)[O-])cc([N+](=O)[O-])cc2C(F)(F)F)ncc1Br [compound 87]
Pyricularia orzae
  pest or weed control at 50 ppm: 100%
Rhizoctonia solani
  pest or weed control at 100 ppm: 100%
Plutella xylostella
  mortality at 800 ppm: 100%

## O=[N+]([O-])c1cc(C(F)(F)F)cc(C(F)(F)F)c1Nc1ccc(C(F)(F)F)c(Cl)n1 [compound 92]
Pyricularia orzae
  pest or weed control at 50 ppm: 100%

## COc1ccc(Nc2c([N+](=O)[O-])cc(C(F)(F)F)cc2[N+](=O)[O-])c(OC)n1 [Compound No. 25]
Pyricularia orzae
  pest or weed control at 100 ppm: 85%

## CCSc1c(C(F)(F)F)cc([N+](=O)[O-])c(Nc2ncc(C(F)(F)F)cc2Cl)c1[N+](=O)[O-] [compound 46]
Pyricularia orzae
  pest or weed control at 100 ppm: 95%

## O=[N+]([O-])c1cc(C(F)(F)F)c(Cl)c([N+](=O)[O-])c1Nc1ccc(Cl)cn1 [compound 5]
Pyricularia orzae
  pest or weed control at 100 ppm: 100%

## O=[N+]([O-])c1cc(C(F)(F)F)c(Cl)c([N+](=O)[O-])c1Nc1nc(Cl)c(C(F)(F)F)cc1Cl [compound 35]
Pyricularia orzae
  pest or weed control at 100 ppm: 95%
Rhizoctonia solani
  pest or weed control at 100 ppm: 100%
Botrytis cinerea
  pest or weed control at 250 ppm: 100%

## COc1ccc(Nc2c([N+](=O)[O-])cc([N+](=O)[O-])cc2C(F)(F)F)nc1 [compound 74, N-(5-methoxy-2-pyridyl)-2,4-dinitro-6-trifluoromethylaniline]
Rhizoctonia solani
  pest or weed control at 100 ppm: 93%
Plutella xylostella
  mortality at 800 ppm: 100%

## COc1c([N+](=O)[O-])cc(C(F)(F)F)c(Nc2ncc(C(F)(F)F)cc2Cl)c1[N+](=O)[O-] [compound 85, N-(3-chloro-5-trifluoromethyl-2-pyridyl)-2,4-dinitro-3-methoxy-6-trifluoromethylaniline]
Pyricularia orzae
  pest or weed control at 50 ppm: 100%
Rhizoctonia solani
  pest or weed control at 100 ppm: 100%

## O=[N+]([O-])c1cc(C(F)(F)F)cc([N+](=O)[O-])c1Nc1ccc(Cl)cn1 [Compound No. 1]
Pyricularia orzae
  pest or weed control at 100 ppm: 91%

## CC(C)Oc1c(C(F)(F)F)cc([N+](=O)[O-])c(Nc2ncc(C(F)(F)F)cc2Cl)c1[N+](=O)[O-] [compound 42]
Pyricularia orzae
  pest or weed control at 100 ppm: 95%
Rhizoctonia solani
  pest or weed control at 100 ppm: 95%
Plutella xylostella
  mortality at 800 ppm: 100%

## O=[N+]([O-])c1cc([N+](=O)[O-])c(Nc2ncc(C(F)(F)F)cc2Br)c(C(F)(F)F)c1 [compound 80]
Pyricularia orzae
  pest or weed control at 50 ppm: 100%
Rhizoctonia solani
  pest or weed control at 100 ppm: 100%

## O=[N+]([O-])c1cc(C(F)(F)F)c(Cl)c([N+](=O)[O-])c1Nc1ncc(Br)cc1Br [compound 17]
Pyricularia orzae
  pest or weed control at 100 ppm: 100%
Botrytis cinerea
  pest or weed control at 250 ppm: 92%

## CC(C)COc1c(C(F)(F)F)cc([N+](=O)[O-])c(Nc2ncc(C(F)(F)F)cc2Cl)c1[N+](=O)[O-] [compound 44]
Pyricularia orzae
  pest or weed control at 100 ppm: 95%
Rhizoctonia solani
  pest or weed control at 100 ppm: 95%

## CCc1nc(Nc2c([N+](=O)[O-])cc([N+](=O)[O-])cc2C(F)(F)F)ccc1I [compound 67]
Pyricularia orzae
  pest or weed control at 50 ppm: 100%
Plutella xylostella
  mortality at 800 ppm: 100%

## COc1c([N+](=O)[O-])cc(C(F)(F)F)c(Nc2ncc(Cl)cc2Cl)c1[N+](=O)[O-] [compound 86]
Pyricularia orzae
  pest or weed control at 50 ppm: 100%
Rhizoctonia solani
  pest or weed control at 100 ppm: 100%

## O=[N+]([O-])c1cc([N+](=O)[O-])c(Nc2c(Cl)cncc2Cl)c(C(F)(F)F)c1 [compound 79]
Rhizoctonia solani
  pest or weed control at 100 ppm: 90%

## O=[N+]([O-])c1cc(C(F)(F)F)c(Cl)c([N+](=O)[O-])c1Nc1cc(Cl)cc(Cl)n1 [Compound No. 6]
Rhizoctonia solani
  pest or weed control at 100 ppm: 100%

## Cc1ccnc(Nc2c([N+](=O)[O-])cc([N+](=O)[O-])cc2C(F)(F)F)c1 [compound 56]
Plutella xylostella
  mortality at 800 ppm: 100%

## O=[N+]([O-])c1cc([N+](=O)[O-])c(Nc2cccnc2Cl)c(C(F)(F)F)c1 [compound 55]
Plutella xylostella
  mortality at 800 ppm: 100%

## Cc1cc(Cl)cc(Nc2c([N+](=O)[O-])cc([N+](=O)[O-])cc2C(F)(F)F)n1 [compound 73]
Rhizoctonia solani
  pest or weed control at 100 ppm: 87%

## O=[N+]([O-])c1cc([N+](=O)[O-])c(Nc2ccncc2)c(C(F)(F)F)c1 [compound 59]
Plutella xylostella
  mortality at 800 ppm: 100%

## Cc1nc(Nc2c([N+](=O)[O-])cc([N+](=O)[O-])cc2C(F)(F)F)ccc1Cl [compound 69]
Pyricularia orzae
  pest or weed control at 50 ppm: 100%

## Cc1nc(Nc2c([N+](=O)[O-])cc(C(F)(F)F)cc2[N+](=O)[O-])c(Cl)c(C)c1Cl [compound 9]
Pyricularia orzae
  pest or weed control at 100 ppm: 83%

## O=[N+]([O-])c1cc(C(F)(F)F)c(F)c([N+](=O)[O-])c1Nc1ncc(C(F)(F)F)cc1Cl [compound 38]
Pyricularia orzae
  pest or weed control at 100 ppm: 100%

## O=[N+]([O-])c1cc(C(F)(F)F)c(O)c([N+](=O)[O-])c1Nc1ncc(C(F)(F)F)cc1Cl [compound 47]
Pyricularia orzae
  pest or weed control at 100 ppm: 95%
Rhizoctonia solani
  pest or weed control at 100 ppm: 95%

## Cc1cc(Nc2c([N+](=O)[O-])cc(C(F)(F)F)c(Cl)c2[N+](=O)[O-])ncc1Br [compound 10]
Pyricularia orzae
  pest or weed control at 100 ppm: 86%

## O=[N+]([O-])c1cc([N+](=O)[O-])c(Nc2ccc(Cl)nc2Cl)c(C(F)(F)F)c1 [compound 75]
Pyricularia orzae
  pest or weed control at 50 ppm: 100%
Rhizoctonia solani
  pest or weed control at 100 ppm: 100%
